Where two headings read alike, the source gives them in different places.
Legend:
ΔF508 CFTR = ΔF508 CFTR (Homo sapiens, UniProt P13569, DEL508-508); experiment: Corrector activity, YFP halide (iodide) quenching assay in FRT cells expressing ΔF508 CFTR; format: cell-based; set-up: expressed in transfected cells; host or cells: Fischer rat thyroid (FRT) cells; conditions: 24 hours with compound at 37° C., forskolin and genistein
Procedure, shortened: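 FRT cells co-expressing ΔF508 CFTR and halide-sensitive YFP were incubated 24 h at 37° C with compounds, then stimulated 30 min at 37° C in PBS with forskolin and genistein. Endpoint fluorescence after iodide injection was normalized to initial reading; EC50 from 4-parameter fit with bottom constrained to DMSO control.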

ypt1^ts cells = experiment: Rescue of growth of ypt1^ts mutant yeast (OD600); format: cell-based; conditions: Saccharomyces cerevisiae, read-out: Ypt1-ts MRC (Minimum Rescue Concentration), ypt1^ts cells, 35° C. and 37° C., OD600; multiple results separated by a comma
Excerpt: The activity of the compounds as modulators of protein trafficking may be measured in the assays described herein that evaluate the ability of a compound to rescue an impairment in protein trafficking. For example, the yeast mutant cell line ypt1^ts can be used to identify compounds that rescue cells from the lethal phenotype of a mutant YPT1 allele (see, e.g., Examples and Schmitt et al. (1988) Cell 53:635-47). The activity may be measured, for example, in a whole yeast cell assay using 384-well screening protocol and an optical density measurement.
The yeast mutant cell line ypt1^ts suppresses, in a temperature dependent fashion, the dominant-lethal phenotype of a mutant YPT1 allele (Schmitt et al. (1988) Cell 53:635-47). The yeast mutant cell line ypt1^ts contains an allele of YPT1 that has two point mutations: one that changes an asparagine at position 121 to a isoleucine (N121I) and another that changes an alanine at position 161 to a valine (A161V). The N121I mutation causes dominant lethality by itself, but lethality is suppressed by the second mutation, resulting in a recessive loss of function phenotype at the restrictive temperatures. ypt1^ts cells grow normally at temperatures up to 25° C., but are growth arrested at 37° C. (Id.).
Compounds were screened to assess their ability to restore growth of ypt1^ts cells. The effect of the compounds was measured on ypt1^ts cells cultured at room temperature (permissive temperature), 37° C. (non-permissive temperature), and 35° C. (semi-permissive temperature).
To determine if the test compounds could rescue the ypt1^ts mutant phenotype, ypt1^ts cells were grown overnight in synthetic complete (SC) media supplemented with 2% glucose at room temperature. Log phase cells were diluted into SC 2% glucose media to an OD600 of 0.003. 100 μL of this culture was then aliquoted into each well of 96-well flat bottom microtiter plates. 1 μL of the test compounds dissolved in DMSO (at a concentration range from 5 mM-0.005 mM) or of DMSO alone was added to each well (50 μM-0.05 μM final concentration in 1% DMSO). Plates were mixed by vortexing and incubated at 35° C. and 37° C. Compound rescue of the ypt1^ts temperature sensitive defect was assessed by measuring the OD600 (optical density at 600 nm; cell growth) of the cultures. Plates incubated at 35° C. were measured at 24 and 40 hours incubation time while plates grown at 37° C. were measured after 40 hours of incubation.
Assays monitoring the rescue of ypt1^ts mutants were performed using a vehicle, a positive control (calcium), and the compounds identified in Table II. Results in Table II corresponding to an MRC (Minimum Rescue Concentration) for ypt1^ts of greater than or equal to 50 micromolar are labeled +; of an MRC for ypt1^ts of 10-50 micromolar are labeled ++; and of an MRC for ypt1^ts of less than 10 micromolar are labeled +++. Multiple results for a particular compound are separated by a comma.

[1] = FRT cells ΔF508 CFTR/YFP, read-out: Corrector EC50

ΔF508 CFTR, sequence (P13569 with tags, fused parts or gaps DEL508-508): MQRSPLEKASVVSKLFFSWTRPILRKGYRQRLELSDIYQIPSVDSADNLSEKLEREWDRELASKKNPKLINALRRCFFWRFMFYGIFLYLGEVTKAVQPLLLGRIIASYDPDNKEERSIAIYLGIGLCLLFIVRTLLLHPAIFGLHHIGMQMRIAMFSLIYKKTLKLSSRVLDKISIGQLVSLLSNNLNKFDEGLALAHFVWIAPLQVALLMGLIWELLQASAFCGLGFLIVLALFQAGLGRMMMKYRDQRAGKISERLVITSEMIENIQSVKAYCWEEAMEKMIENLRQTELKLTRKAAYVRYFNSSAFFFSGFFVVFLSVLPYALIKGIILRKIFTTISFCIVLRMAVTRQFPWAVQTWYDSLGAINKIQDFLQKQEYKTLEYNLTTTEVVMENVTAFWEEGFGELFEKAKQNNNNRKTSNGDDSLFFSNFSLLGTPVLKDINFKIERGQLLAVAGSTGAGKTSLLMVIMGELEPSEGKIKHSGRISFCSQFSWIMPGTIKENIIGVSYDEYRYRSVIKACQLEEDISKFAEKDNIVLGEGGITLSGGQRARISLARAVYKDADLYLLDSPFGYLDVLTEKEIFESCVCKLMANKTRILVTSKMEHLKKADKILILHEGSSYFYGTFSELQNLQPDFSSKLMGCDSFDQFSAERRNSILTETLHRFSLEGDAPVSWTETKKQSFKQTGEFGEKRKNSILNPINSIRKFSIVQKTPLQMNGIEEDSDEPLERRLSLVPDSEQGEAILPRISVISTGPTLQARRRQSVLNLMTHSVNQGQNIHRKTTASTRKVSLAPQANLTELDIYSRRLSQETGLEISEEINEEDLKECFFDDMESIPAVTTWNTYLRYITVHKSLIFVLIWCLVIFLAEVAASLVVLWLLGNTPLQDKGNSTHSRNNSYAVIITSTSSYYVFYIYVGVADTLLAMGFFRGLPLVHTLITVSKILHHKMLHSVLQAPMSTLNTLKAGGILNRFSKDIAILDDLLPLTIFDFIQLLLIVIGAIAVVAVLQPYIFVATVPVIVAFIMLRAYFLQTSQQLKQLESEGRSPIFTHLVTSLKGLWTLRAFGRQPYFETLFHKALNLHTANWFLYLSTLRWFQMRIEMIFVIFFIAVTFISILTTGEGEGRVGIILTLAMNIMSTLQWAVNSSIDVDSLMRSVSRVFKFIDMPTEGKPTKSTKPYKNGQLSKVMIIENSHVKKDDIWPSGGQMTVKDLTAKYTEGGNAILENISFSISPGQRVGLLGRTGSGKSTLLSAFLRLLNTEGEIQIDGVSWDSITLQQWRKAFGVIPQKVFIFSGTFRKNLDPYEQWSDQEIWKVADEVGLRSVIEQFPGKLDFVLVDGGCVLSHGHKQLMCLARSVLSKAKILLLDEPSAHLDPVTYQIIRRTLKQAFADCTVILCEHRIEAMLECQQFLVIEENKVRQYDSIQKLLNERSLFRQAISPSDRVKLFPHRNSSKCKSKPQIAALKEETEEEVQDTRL

Structure (SMILES)	EC50 (ΔF508 CFTR; [1]) [µM]	minimal effective concentration (ypt1^ts cells) [µM]	EC50 (ΔF508 CFTR; Corrector EC50, FRT cells ΔF508 CFTR/YFP) [µM]
Cn1nc(-c2ccc(Cl)cc2)c2c(N)ncnc21 [compound 1]	> 15	> 50	
CC(C)(C)n1nc(CCc2ccccc2)c2c(N)ncnc21 [compound 48]		> 50	
CC(C)(C)n1nc(-c2ccccc2Cl)c2c(N)ncnc21 [compound 7]		> 50	
Cc1ccc(-c2nn(C(C)(C)C)c3ncc(C(=O)O)c(N)c23)cc1 [compound 45, 4-Amino-1-tert-butyl-3-p-tolyl-1H-pyrazolo[3,4-b]pyridine-5-carboxylic acid]		> 50	
CC(C)(C)n1nc(Cc2cccc(F)c2)c2c(N)ncnc21 [compound 50]		10 to 50	
CC(C)(C)n1nc(COCc2ccccc2)c2c(N)ncnc21 [compound 81, 3-benzyloxymethyl-1-tert-butyl-1H-pyrazolo[3,4-d]pyrimidin-4-ylamine]		> 50	
CC(C)(C)n1nc(Cc2cccc(C#N)c2)c2c(N)ncnc21 [compound 59]		> 50	
CC(C)Cn1nc(Cc2cccc3ccccc23)c2c(N)ncnc21 [compound 75]		< 10	
C#Cc1cccc(Cc2nn(C(C)(C)C)c3ncnc(N)c23)c1 [compound 64]		10 to 50	
Nc1ncnc2c1c(Cc1cccc3ccccc13)nn2CC1CC1 [compound 72]		< 10	
CC(C)(C)n1ncc2c(N)ncnc21 [compound 12, 1-tert-butyl-1H-pyrazolo[3,4-d]pyrimidin-4-ylamine]		> 50	
CC(C)(C)n1nc(-c2ccccc2)c2c(N)ncnc21 [compound 8]	> 15	> 50	
Nc1ncnc2c1c(Cc1cccc3ccccc13)nn2C1CC1 [compound 73]		< 10	
CC(C)(C)n1nc(-c2cccc3ccccc23)c2c(N)ncnc21 [compound 6]		10 to 50	> 15
CCn1nc(-c2ccc(Cl)cc2)c2c(NC(C)=O)ncnc21 [compound 53]	5 to 10	> 50	
CC(C)(C)n1nc(-c2ccc(-c3ccccc3)cc2)c2c(N)ncnc21 [compound 14]		> 50	
Nc1ncnc2c1c(Cc1cccc3ccccc13)nn2C1CCC1 [compound 74]	> 15	< 10	
CC(C)(C)n1nc(Cc2cccc3ccccc23)c2c(N)nc(C3CC3)nc21 [compound 92]		> 50	
CC(C)(C)n1nc(-c2ccc(F)cc2)c2c(N)ncnc21 [compound 9, 1-tert-Butyl-3-(4-fluoro-phenyl)-1H-pyrazolo[3,4-d]pyrimidin-4-ylamine]		> 50	

Structure (SMILES)	EC50 (ΔF508 CFTR; [1]) [µM]	minimal effective concentration (ypt1^ts cells) [µM]	EC50 (ΔF508 CFTR; Corrector EC50, FRT cells ΔF508 CFTR/YFP) [µM]
Cc1ccc(-c2nn(C(C)(C)C)c3nccc(N)c23)cc1 [compound 69, 1-tert-Butyl-3-p-tolyl-1H-pyrazolo[3,4-b]pyridin-4-ylamine]		> 50	
C=CCn1nc(-c2ccc(Cl)cc2)c2c(N)ncnc21 [compound 32]	> 15	> 50	
CC(C)(C)n1nc(Cc2cccc3c2OCC3)c2c(N)ncnc21 [compound 66]		10 to 50	
CC(C)(C)n1nc(Cc2ccc(F)c3ccccc23)c2c(N)ncnc21 [compound 91]		< 10	
CN(C)c1cccc(C(O)c2nn(C(C)(C)C)c3ncnc(N)c23)c1 (centres unmarked) [compound 87]		> 50	
CC(C)(C)n1nc(-c2ccsc2)c2c(N)ncnc21 [compound 37]		> 50	
Nc1ncnc2c1c(-c1ccc(Cl)cc1)nn2Cc1ccccc1 [compound 28]		10 to 50	
CCn1nc(Cc2cccc3ccccc23)c2c(N)ncnc21 [compound 71]		< 10	
CC(C)(C)n1nc(C(=O)O)c2c(N)ncnc21 [compound 85, 4-Amino-1-tert-butyl-1H-pyrazolo[3,4-d]pyrimidine-3-carboxylic acid]		> 50	
C=CCn1nc(Cc2cccc3ccccc23)c2c(N)ncnc21 [compound 76]		10 to 50	
CC(C)(C)n1nc(CNc2ccccc2)c2c(N)ncnc21 [compound 88]		10 to 50	
CC(c1ccccc1)c1nn(C(C)(C)C)c2ncnc(N)c12 (centres unmarked) [compound 49]		10 to 50	
Cc1cccc(Cc2nn(C(C)(C)C)c3ncnc(N)c23)c1 [compound 52]		10 to 50	
CC(C)n1nc(Cc2cccc3ccccc23)c2c(N)ncnc21 [compound 78]		< 10	
CC(C)(C)n1nc(C(O)c2ccccc2)c2c(N)ncnc21 (centres unmarked) [compound 82, (4-amino-1-tert-butyl-1H-pyrazolo[3,4-d]pyrimidin-3-yl)-phenyl-methanol]		> 50	
CC(C)(C)n1nc(Cc2cccc(Br)c2)c2c(N)ncnc21 [compound 58]		< 10	
CC(C)(C)n1nc(Cc2ccc(Cl)c(Cl)c2)c2c(N)ncnc21 [compound 21]		> 50	
COc1ccc(-c2nn(C(C)(C)C)c3ncnc(N)c23)cc1 [compound 13]		> 50	
CC(C)(C)c1ccc(-c2nn(C(C)(C)C)c3ncnc(N)c23)cc1 [compound 18]		> 50	

Structure (SMILES)	EC50 (ΔF508 CFTR; [1]) [µM]	minimal effective concentration (ypt1^ts cells) [µM]	EC50 (ΔF508 CFTR; Corrector EC50, FRT cells ΔF508 CFTR/YFP) [µM]
Cc1nc(N)c2c(-c3ccc(Cl)cc3)nn(C(C)(C)C)c2n1 [compound 57]		10 to 50	
CC(C)(C)n1nc(Cc2cccc(-c3ccccc3)c2)c2c(N)ncnc21 [compound 60]		> 50	
COc1cccc(Cc2nn(C(C)(C)C)c3ncnc(N)c23)c1 [compound 56]		10 to 50	
CC(C)(C)n1nc(C(N)=O)c2c(N)ncnc21 [compound 89, 4-Amino-1-tert-butyl-1H-pyrazolo[3,4-d]pyrimidine-3-carboxylic acid amide]		> 50	
CC(C)(C)n1nc(Cc2ccc(F)cc2)c2c(N)ncnc21 [compound 51]		> 50	
CC(C)(C)n1nc(Cc2cccc3ccoc23)c2c(N)ncnc21 [compound 68]		10 to 50	
CC(C)(C)n1nc(Cc2ccc(Cl)cc2)c2c(N)ncnc21 [compound 19]		< 10	
CC(C)(C)n1nc(-c2ccc(Cl)cc2)c2c(N)nc(CC3CC3)nc21 [compound 63]		> 50	
CC(C)(C)n1nc(-c2ccc(Cl)c(Cl)c2)c2c(N)ncnc21 [compound 36]		> 50	
CC(C)(C)n1nc(Cc2ccccc2Cl)c2c(N)ncnc21 [compound 20]		10 to 50	
Nc1ncnc2[nH]nc(Cc3cccc4ccccc34)c12 [compound 70]		> 50	
Cc1ccc(Cc2nn(C(C)(C)C)c3ncnc(N)c23)cc1 [compound 22]		10 to 50	
Cc1ccc(Cc2nn(C(C)(C)C)c3ncnc(N)c23)cc1C [compound 65]		10 to 50	
CC(C)(C)n1nc(C(=O)c2ccccc2)c2c(N)ncnc21 [compound 83, (4-Amino-1-tert-butyl-1H-pyrazolo[3,4-d]pyrimidin-3-yl)-phenyl-methanone]		> 50	
CC(C)c1ccc(-c2nn(C(C)(C)C)c3ncnc(N)c23)cc1 [compound 17]		> 50	
CCc1nc(N)c2c(-c3ccc(Cl)cc3)nn(C(C)(C)C)c2n1 [compound 61]		> 50	
CC(C)(C)n1nc(-c2cc3ccccc3o2)c2c(N)ncnc21 [compound 42]		> 50	
CC(C)(C)n1nc(-c2ccc(C#N)cc2)c2c(N)ncnc21 [compound 35]		> 50	
